Assay results as given in patent US6818219B1, “Reagent for detecting and monitoring viral infections” (Institut Pasteur de Lille, priority 1997, dated 2004).

Test system: anti-VCAp18 antibodies of EBV-positive sera
Assay: Measurement of the binding affinity to the antibody (method of FRIGUET, ELISA inhibition by soluble VCAp18/SEQ ID No. 2)
Set-up: species or system human
Settings: increasing concentrations of soluble peptide
Protocol: The specificity of the binding of the positive sera to the different mixotopes in solid phase is evaluated by the absorption of the antibodies by the native antigen VCAp18/SEQ ID No. 2 in solution, using the method of B. FRIGUET et al. (J. Immunol. Methods, 1985, 77, 305-319).
This method is based on the measurement of the free antibody concentration by an indirect ELISA method when the antigen VCAp18/SEQ ID No. 2 and the antibodies are in equilibrium in solution.
The antigen VCAp18/SEQ ID No. 2, at different concentrations (10^−10 M to 2×10^−6 M), is first incubated in solution (PBS-T buffer+2% BSA) with an EBV-positive serum, at a constant concentration (1/50) until the equilibrium state is reached. […]
After washing with PBS-T buffer, the bound immunoglobulins are detected by addition of peroxidase-coupled goat antibodies anti-human IgG-A-Ms.
This method gives the displacement curves for the A/Ao bond relative to log(ao). A precise estimation of the mean affinity of the serum containing the anti-VCAp18 antibodies is given by the equation Ao/(Ao−A)=1/ν=1+Kd/ao, in which ao is the total soluble antigen concentration, A and Ao are the absorbance values at 492 nm with or without blocking antigen, respectively, and ν is the bound antibody fraction, if the different conditions set out in FRIGUET et al. are satisfied.

CAVDTGSGGGGQPHDTAPRGARKKQ [VCAp18/SEQ ID No. 2]
inhibition of the binding of the human sera to the 3 mixotopes in solid phase: specifically and strongly inhibited
